Where two headings read alike, the source gives them in different places.
Tests used:
[1] = test system: MOLM-13 cells; assay: Cell viability assay (CellTiter-Glo) in MOLM-13 cells, alone or with gilteritinib; format: cell-based; details: Homo sapiens, MOLM-13 cells, three days, CellTiter-Glo
[2] = test system: MV4;11 cells; assay: Cell viability assay (CellTiter-Glo) in MV4;11 cells, alone or with gilteritinib; format: cell-based; details: Homo sapiens, MV4;11 cells, three days, CellTiter-Glo, read-out: MV4
[3] = MOLM-13, 72 h, compound alone (without gilteritinib), read-out: MOLM-13 IC50
[4] = MOLM-13, 72 h, compound with gilteritinib 20 nM, read-out: MOLM-13 IC50 gilteritinib
[5] = MV4-11, 72 h, compound alone (without gilteritinib), 11 IC50
[6] = MV4-11, 72 h, compound with gilteritinib 10 nM, 11 IC50 gilteritinib
[7] = 72 h, compound alone (without gilteritinib), read-out: MOLM-13 IC50
[8] = 72 h, compound with gilteritinib 20 nM, read-out: MOLM-13 IC50 gilteritinib
[9] = 72 h, compound alone (without gilteritinib), 11 IC50
[10] = 72 h, compound with gilteritinib 10 nM, 11 IC50 gilteritinib

SMILES	IC50 [1, 3]	IC50 [1, 4]	IC50 [2, 5]	IC50 [2, 6]	IC50 [1, 7]	IC50 [1, 8]	IC50 [2, 9]	IC50 [2, 10]
O=C1CCC(N2C(=O)c3ccc(NC[C@H]4C[C@H](n5nc(C6CC6)c6cnccc65)C4)cc3C2=O)C(=O)N1 (stereo partly drawn) [GS-474, 5-(((trans-3-(3-cyclopropyl-1H-pyrazolo[4,3-c]pyridin-1-yl)cyclobutyl)methyl)amino)-2-(2,6-dioxopiperidin-3-yl)isoindoline-1,3-dione]	> 1000 nM	> 1000 nM	> 1000 nM	> 1000 nM				
O=C1CCC(N2C(=O)c3ccc(NC[C@H]4C[C@H](n5nc(C6CC6)c6ncccc65)C4)cc3C2=O)C(=O)N1 (stereo partly drawn) [GS-475, 5-(((trans-3-(3-cyclopropyl-1H-pyrazolo[4,3-b]pyridin-1-yl)cyclobutyl)methyl)amino)-2-(2,6-dioxopiperidin-3-yl)isoindoline-1,3-dione]	> 1000 nM	> 1000 nM	> 1000 nM	> 1000 nM				
O=C1CCC(N2Cc3cc(CNC(=O)c4cccc(N5CCC(n6cc(-c7cnc8ccccc8n7)cn6)CC5)c4)ccc3C2=O)C(=O)N1 (centres unmarked) [GS-476, N-((2-(2,6-dioxopiperidin-3-yl)-1-oxoisoindolin-5-yl)methyl)-3-(4-(4-(quinoxalin-2-yl)-1H-pyrazol-1-yl)piperidin-1-yl)benzamide]	< 10 nM	< 10 nM	< 10 nM	< 10 nM				
O=C1CCC(N2C(=O)c3ccc(NCCCCCC(=O)N4CCC(n5cc(-c6cnc7cccc(C8=CCNCC8)c7n6)cn5)CC4)cc3C2=O)C(=O)N1 (centres unmarked) [GS-480, 2-(2,6-dioxopiperidin-3-yl)-5-((6-oxo-6-(4-(4-(8-(1,2,3,6-tetrahydropyridin-4-yl)quinoxalin-2-yl)-1H-pyrazol-1-yl)piperidin-1-yl)hexyl)amino)isoindoline-1,3-dione]	100 to 1000 nM	< 10 nM	10 to 100 nM	< 10 nM				
O=C1CCC(N2C(=O)c3ccc(NCCCCCC(=O)N4CCC(c5cnc6ccccc6c5)CC4)cc3C2=O)C(=O)N1 (centres unmarked) [GS-481, 2-(2,6-dioxopiperidin-3-yl)-5-((6-oxo-6-(4-(quinolin-3-yl)piperidin-1-yl)hexyl)amino)isoindoline-1,3-dione]	10 to 100 nM	< 10 nM	< 10 nM	< 10 nM				
O=C(Cc1cccc(N2CCN(c3ccccn3)CC2)c1)NCc1ccc2c(c1)CN(C1CCC(=O)NC1=O)C2=O (centres unmarked) [GS-483, N-((2-(2,6-dioxopiperidin-3-yl)-1-oxoisoindolin-5-yl)methyl)-2-(3-(4-(pyridin-2-yl)piperazin-1-yl)phenyl)acetamide]	< 10 nM	< 10 nM	< 10 nM	< 10 nM				
O=C1CCC(N2Cc3cc(OCCCCC(=O)N4CCC(n5cc(-c6cnc7ccccc7n6)cn5)CC4)ccc3C2=O)C(=O)N1 (centres unmarked) [GS-484, 3-(1-oxo-5-((5-oxo-5-(4-(4-(quinoxalin-2-yl)-1H-pyrazol-1-yl)piperidin-1-yl)pentyl)oxy)isoindolin-2-yl)piperidine-2,6-dione]	100 to 1000 nM	100 to 1000 nM	> 1000 nM	100 to 1000 nM				
O=C1CCC(N2Cc3cc(OCCC(=O)N4CCC(n5cc(-c6cnc7ccccc7n6)cn5)CC4)ccc3C2=O)C(=O)N1 (centres unmarked) [GS-485, 3-(1-oxo-5-(3-oxo-3-(4-(4-(quinoxalin-2-yl)-1H-pyrazol-1-yl)piperidin-1-yl)propoxy)isoindolin-2-yl)piperidine-2,6-dione]	> 1000 nM	> 1000 nM	> 1000 nM	> 1000 nM				
O=C1CCC(N2Cc3cc(OCCCN4CCC(n5cc(-c6cnc7ccccc7n6)cn5)CC4)ccc3C2=O)C(=O)N1 (centres unmarked) [GS-492, 3-(1-oxo-5-(3-(4-(4-(quinoxalin-2-yl)-1H-pyrazol-1-yl)piperidin-1-yl)propoxy)isoindolin-2-yl)piperidine-2,6-dione]	> 1000 nM	> 1000 nM	> 1000 nM	> 1000 nM				
O=C1CCC(N2Cc3cc(OCCCCCC(=O)N4CCC(n5cc(-c6cnc7ccccc7n6)cn5)CC4)ccc3C2=O)C(=O)N1 (centres unmarked) [GS-493, 3-(1-oxo-5-((6-oxo-6-(4-(4-(quinoxalin-2-yl)-1H-pyrazol-1-yl)piperidin-1-yl)hexyl)oxy)isoindolin-2-yl)piperidine-2,6-dione]	> 1000 nM	< 10 nM	10 to 100 nM	< 10 nM				
COc1cccnc1-c1cnn([C@H]2C[C@H](CCCNc3ccc4c(c3)C(=O)N(C3CCC(=O)NC3=O)C4=O)C2)c1 (stereo partly drawn) [GS-494, 2-(2,6-Dioxopiperidin-3-yl)-5-((3-(trans-3-(4-(3-methoxypyridin-2-yl)-1H-pyrazol-1-yl)cyclobutyl)propyl)amino)isoindoline-1,3-dione]	10 to 100 nM	< 10 nM	10 to 100 nM	< 10 nM				
O=C1CCC(N2Cc3cc(NC(=O)Cc4cccc(N5CCC(n6cc(-c7cnc8ccccc8n7)cn6)CC5)c4)ccc3C2=O)C(=O)N1 (centres unmarked) [GS-495, N-(2-(2,6-dioxopiperidin-3-yl)-1-oxoisoindolin-5-yl)-2-(3-(4-(4-(quinoxalin-2-yl)-1H-pyrazol-1-yl)piperidin-1-yl)phenyl)acetamide]	< 10 nM	< 10 nM	< 10 nM	< 10 nM				
O=C1CCC(N2C(=O)c3ccc(NCCCCCCn4cc(-c5ccccc5)cn4)cc3C2=O)C(=O)N1 (centres unmarked) [GS-496, 2-(2,6-dioxopiperidin-3-yl)-5-((6-(4-phenyl-1H-pyrazol-1-yl)hexyl)amino)isoindoline-1,3-dione]					100 to 1000 nM	10 to 100 nM	100 to 1000 nM	10 to 100 nM
Cc1cccc(-c2cnn(CCCCCCNc3ccc4c(c3)C(=O)N(C3CCC(=O)NC3=O)C4=O)c2)c1 (centres unmarked) [GS-497, 2-(2,6-dioxopiperidin-3-yl)-5-((6-(4-(m-tolyl)-1H-pyrazol-1-yl)hexyl)amino)isoindoline-1,3-dione]	100 to 1000 nM	< 10 nM	10 to 100 nM	< 10 nM				
Cc1cccc(-c2cnn(CCCCCCNc3ccc4c(c3)C(=O)N(C3CCC(=O)NC3=O)C4=O)c2)n1 (centres unmarked) [GS-498, 2-(2,6-dioxopiperidin-3-yl)-5-((6-(4-(6-methylpyridin-2-yl)-1H-pyrazol-1-yl)hexyl)amino)isoindoline-1,3-dione]	100 to 1000 nM	10 to 100 nM	100 to 1000 nM	10 to 100 nM				
Cc1cncc(-c2cnn(CCCCCCNc3ccc4c(c3)C(=O)N(C3CCC(=O)NC3=O)C4=O)c2)c1 (centres unmarked) [GS-499, 2-(2,6-dioxopiperidin-3-yl)-5-((6-(4-(5-methylpyridin-3-yl)-1H-pyrazol-1-yl)hexyl)amino)isoindoline-1,3-dione]	> 1000 nM	100 to 1000 nM	> 1000 nM	100 to 1000 nM				
O=C1CCC(N2Cc3cc(NC(=O)C(F)(F)c4cccc(N5CCC(n6cc(-c7cnc8ccccc8n7)cn6)CC5)c4)ccc3C2=O)C(=O)N1 (centres unmarked) [GS-500, N-(2-(2,6-dioxopiperidin-3-yl)-1-oxoisoindolin-5-yl)-2,2-difluoro-2-(3-(4-(4-(quinoxalin-2-yl)-1H-pyrazol-1-yl)piperidin-1-yl)phenyl)acetamide]	< 10 nM	< 10 nM	< 10 nM	< 10 nM				
O=C1CCC(N2Cc3cc(NC(=O)Cc4cccc(N5CCC(c6ccccc6)CC5)c4)ccc3C2=O)C(=O)N1 (centres unmarked) [GS-501, N-(2-(2,6-Dioxopiperidin-3-yl)-1-oxoisoindolin-5-yl)-2-(3-(4-phenylpiperidin-1-yl)phenyl)acetamide]					< 10 nM	< 10 nM	< 10 nM	< 10 nM
Cc1nc2ccccc2nc1-c1cnn(CCCCCCNc2ccc3c(c2)C(=O)N(C2CCC(=O)NC2=O)C3=O)c1 (centres unmarked) [GS-502, 2-(2,6-Dioxopiperidin-3-yl)-5-((6-(4-(3-methylquinoxalin-2-yl)-1H-pyrazol-1-yl)hexyl)amino)isoindoline-1,3-dionee]	100 to 1000 nM	10 to 100 nM	100 to 1000 nM	10 to 100 nM				
O=C1CCC(N2C(=O)c3ccc(NCCCCCCn4cc(-c5cnc6ccc(Br)cc6n5)cn4)cc3C2=O)C(=O)N1 (centres unmarked) [GS-503, 5-((6-(4-(7-Bromoquinoxalin-2-yl)-1H-pyrazol-1-yl)hexyl)amino)-2-(2,6-dioxopiperidin-3-yl)isoindoline-1,3-dione]	100 to 1000 nM	10 to 100 nM	10 to 100 nM	< 10 nM				
O=C1CCC(N2C(=O)c3ccc(NCCCc4cccc(N5CCC(c6ccccc6)CC5)c4)cc3C2=O)C(=O)N1 (centres unmarked) [GS-504, 2-(2,6-Dioxopiperidin-3-yl)-5-((3-(3-(4-phenylpiperidin-1-yl)phenyl)propyl)amino)isoindoline-1,3-dione]					100 to 1000 nM	10 to 100 nM	100 to 1000 nM	10 to 100 nM
O=C1CCC(N2C(=O)c3ccc(NCCCc4cc(F)cc(N5CCC(c6ccccc6)CC5)c4)cc3C2=O)C(=O)N1 (centres unmarked) [GS-505, 2-(2,6-Dioxopiperidin-3-yl)-5-((3-(3-fluoro-5-(4-phenylpiperidin-1-yl)phenyl)propyl)amino)isoindoline-1,3-dione]					10 to 100 nM	< 10 nM	10 to 100 nM	10 to 100 nM
O=C1CCC(N2C(=O)c3ccc(NCCCc4ccc(F)c(N5CCC(c6ccccc6)CC5)c4)cc3C2=O)C(=O)N1 (centres unmarked) [GS-506, 2-(2,6-Dioxopiperidin-3-yl)-5-((3-(4-fluoro-3-(4-phenylpiperidin-1-yl)phenyl)propyl)amino)isoindoline-1,3-dione]					> 1000 nM	100 to 1000 nM	> 1000 nM	> 1000 nM
